What was measured:
[1] = system: human fibroblast (ATCC 2076); experiment: Confirmation of cytotoxicity (MTT cell viability); format: cell-based; details: for Cell viability (%): human fibroblast, MTT
Protocol: The cell viability for human fibroblast (ATCC 2076) was measured using the anti-inflammatory composition prepared in the following Examples.
The human fibroblast (ATCC 2076) with a concentration of 5×10^4 cells/ml was inoculated into a 24-well culture plate of Iscove's Modified Dulbecco's Medium (IMDM, GIBCO) containing 10% bovine serum. […] Then, the supernatant was removed, the cells were washed with 200 μl of 5% phosphate buffered saline (PBS), 1.0 ml of MTT solution was added to each well, and after 4 hours, and the MTT was removed. Next, 1.0 ml of DMSO was added to each well, and incubation was performed overnight at 37° C. The absorbance at 570 nm was measured to determine the cell viability using Equation 1 below, and results thereof are shown in Table 1 below. Here, as a negative control group, a test group in which the active ingredient was not used was adopted. Cell viability (%)=(A570λvalue/B570λvalue)×100 [Equation 1]
A: Absorbance value at 570 nm of Example
B: Absorbance value at 570 nm of negative control group

IL-8 = experiment: Anti-inflammatory effect: IL-8 expression in atopic dermatitis-induced 3D culture tissue (immunohistochemistry); format: cell-based; details: compared with the skin model in which atopic dermatitis was induced, 72 hours, quantified immunohistochemistry (FIG. 2), read-out: IL-8 inhibitory effect
Protocol: (§1) In order to measure the anti-inflammatory efficacy, atopic dermatitis was induced with respect to IL-8 and IL-17A, which are inflammation-inducing cytokines, and expression amounts thereof were measured.
(§2) In order to induce atopic dermatitis, the 3D culture tissue (EpiDerm Full Thickness 400, sold by MatTek) media containing Poly (I:C), TNF-α, IL-4 and IL-13 were used, and treated for 72 hours with N-(2-hydroxyethyl)octanamide at a final concentration of 100 μM. Then, the 3D culture tissue was immobilized on formalin to make a paraffin block, and the degree of expression of inflammation-inducing cytokine was evaluated.
(§3) In FIG. 1, AD represents a skin model in which atopic dermatitis was induced, and the anti-inflammatory effect was evaluated based on the expression amounts of IL-8 and IL-17A.
(§4) Further, the inhibitory effect of each cytokine was quantified based on the results obtained through the immunohistochemistry obtained in FIG. 1, and shown in FIG. 2.

IL-17A = experiment: Anti-inflammatory effect: IL-17A expression in atopic dermatitis-induced 3D culture tissue (immunohistochemistry); format: cell-based; details: compared with the skin model in which atopic dermatitis was induced, 72 hours, quantified immunohistochemistry (FIG. 2), read-out: IL-17A inhibitory effect
Protocol: as §1, §2, §3, §4

atopic dermatitis = experiment: Atopic dermatitis improvement effect (EASI score) in pediatric patients; format: in vivo, human; details: 30 pediatric patients with atopic dermatitis, twice a day for 4 weeks
Protocol: In order to measure atopic dermatitis improvement effect, the anti-inflammatory compositions were prepared according to the following Examples. Here, the atopic dermatitis improvement effect was measured using an eczema area severity index (EASI) score. 30 pediatric patients with atopic dermatitis were treated twice a day for 4 weeks, and then effects on atopic symptoms were measured.

For `CCCCC(CC)C(=O)NC(CO)CO` (stereo not shown) [Example 1, N-(1,3-dihydroxypropan-2-yl)-2-ethylhexanamide], the Cytotoxicity ([1]; in the concentration range of the evaluation method) was “no cytotoxicity”, the “Cell viability (%)” value ([1]; used amount 0.00064 μM) was 110% and the “Cell viability (%)” value ([1]; used amount 0.0032 μM) was 106%. For the same compound, the “Cell viability (%)” value ([1]; used amount 0.016 μM) was 99%, the “Cell viability (%)” value ([1]; used amount 0.08 μM) was 100% and the “Cell viability (%)” value ([1]; used amount 0.4 μM) was 98%. For the same compound, the “Cell viability (%)” value ([1]; used amount 2 μM) was 101%, the “Cell viability (%)” value ([1]; used amount 10 μM) was 101% and the “Cell viability (%)” value ([1]; used amount 50 μM) was 101%. For the same compound, the “Cell viability (%)” value ([1]; used amount 250 μM) was 108%, the inhibition at 100 µM (IL-8) was no less than 48.5% and the inhibition at 100 µM (IL-17A) was no less than 58.9%. The “Atopic dermatitis improvement effect (EASI score)” value (atopic dermatitis) was “significant numerical decrease”.
